Experimental data published in US5583108A, “Vasonatrin peptide and analogs thereof” (Mayo Foundation for Medical Education and Research, priority 1994, dated 1996).

Assays:
[1] = tested on: isolated normal canine blood vessels; test: Organ chamber isometric force: relaxation of phenylephrine-contracted vessel rings; design: species or system dog; conditions: for relaxation: maximal dose (3×10^-6 M); for maximal response, percent change in tension from a contraction to phenylephrine: peptide 3 × 10^-6 M, mean ± SEM
Method: (§1) The results obtained are expressed as the means ±SEM. In organ chamber studies, n equals the number of dogs from which rings were taken. Rings with and without endothelium were studied in parallel, and Student's t-test for unpaired observations was used to determine statistical significance among the responses of rings with and without endothelium and between responses of arteries and veins. In rat studies, the data were analyzed using ANOVA for repeated measures followed by Fisher's least significant difference test when appropriate within the group. Data between groups were analyzed by Student's unpaired t-test. Statistical significance was determined at p<0.05.
Rings cut from femoral, saphenous, renal and pulmonary arteries and veins obtained from random source mongrel dogs (anesthetized with 30 mg/kg pentobarbital sodium intravenously) were suspended for the measurement of isometric force in organ chambers filled with aerated (95% O2 and 5% CO2) modified Krebs-Ringer bicarbonate solution (composition in mM: 118.3 NaCl, 4.7 KCl, 2.5 CaCl2, 1.2 MgSO4, 1.2 KH2 PO4, 25.0 NaHCO3, 0.026 calcium sodium EDTA, and 11.1 dextrose; control solution) at 37° C. In one-half rings, the endothelium was removed by gently rubbing the intimal surface with a cotton swab wetted with control solution. Each ring was stretched to the optimal point on its length-tension curve as determined by the tension developed to norepinephrine (3×10^-7 M) at each level of stretch. The presence of endothelium was determined at the beginning of the experiment by a relaxation to acetylcholine (10^-6 M) during a contraction to norepinephrine at optimal length. The maximal tension of each ring was determined by norepinephrine (10^-4 M). To study responses to ANP, CNP and VNP, the rings were contracted with phenylephrine (10^-6 M). These contractions averaged 30-40% of the maximal contraction to norepinephrine. The peptides were added cumulatively once the contraction had stabilized.
The following commercially available drugs were used: acetylcholine chloride (Sigma Chemical, St. Louis, Mo.), human ANP and human CNP (Peninsula Laboratories, Belmont, Calif.), L-norepinephrine bitartrate (Sigma), phenylephrine bitartrate (Sigma). All drugs were dissolved in distilled water immediately prior to study, and the concentrations are reported as the final molar concentration (M) in the organ chamber.

normal rats = test: Cardiorenal actions after intravenous bolus in anesthetized normal rats; assay type: in vivo, Wistar rats; conditions: for MAP mean arterial pressure / HR heart rate / RAP right atrial pressure / UKV urine potassium excretion / UNaV urine sodium excretion / UV urine volume / UcGMPV urine cGMP volume / PcGMP plasma cGMP: mean ± SEM; for MAP mean arterial pressure: n = 4
Method: as §1
Experiments were conducted in accordance with the Animal Welfare Act. Wistar rats and spontaneously hypertensive rats (SHR) (400 g; Harlan Sprague-Dawley, Indianapolis, Ind.) were anesthetized with Inactin (100 mg/kg; intraperitoneal; BYK Gulden, Konstanz, Germany). The body temperature was maintained between 36° and 38° C. by a heating pad. Tracheostomy was performed; however, the animals were not artificially ventilated. Polyethylene catheters (PE-50; Becton Dickinson Co., Parsippany, N.J.) were placed in the left Jugular vein for infusions of saline and drugs, in the right jugular vein to right atrium to monitor right atrial pressure, and in the carotid artery for the collection of blood samples and to monitor mean arterial pressure. A PE-90 catheter was placed in the bladder for urine collection.
Experiments were conducted in three groups in normal rats: ANP group (n=4), CNP group (n=4), and VNP group (n=4). VNP also was studied in SHR rats (n=4). Intravenous infusions of saline solution (0.9% NaCl) were performed (1 ml/100 gm body weight/hr) through the left jugular vein catheter. After completion of surgery, rats were allowed to stabilize for 30 minutes. In each group, a 15-min baseline period followed. After the baseline period, saline solution (0.9% NaCl) was administered in a bolus fashion (0.1 ml) and was followed by a 15-min period. After the saline period, the peptide (ANP, CNP or VNP) was administered in a bolus fashion (0.1 ml) at 5 μg/kg which was followed by a 15-min period. This was followed by a second bolus (0.1 ml) at 50 μg/kg and a 15-min period. After a 30-min washout, a 15-min recovery period followed. During each experimental period, mean arterial pressure (MAP), heart rate (HR), and right atrial pressure (RAP) were measured. At the midpoint of baseline, second bolus fashion (50 μg/kg) and recovery periods, blood was sampled for plasma cGMP. At the end of each period, urine was measured for volume (UV), and samples were stored for electrolytes and cGMP analysis.
Blood for plasma cGMP analysis was collected into EDTA tubes, immediately placed on ice, and centrifuged at […] at 4° C. Plasma was separated and stored at -20° C. until assay. Urine for cGMP determination was heated to >90° C. before storage. Plasma and urine cGMP were determined by a specific RIA as previously described by A. L. Steiner et al., J. Hypertension, 5 (Suppl. 5) 551-553 (1987).

[2] = normal rats, high dose (50 μg/kg) bolus

CC[C@H](C)[C@@H]1NC(=O)[C@H](CCCNC(=N)N)NC(=O)[C@H](CC(=O)O)NC(=O)[C@H](CC(C)C)NC(=O)[C@H](CCCCN)NC(=O)[C@H](CC(C)C)NC(=O)CNC(=O)[C@H](Cc2ccccc2)NC(=O)[C@@H](NC(=O)CNC(=O)[C@H](CCCCN)NC(=O)[C@H](CO)NC(=O)[C@H](CC(C)C)NC(=O)CN)CSSC[C@@H](C(=O)O)NC(=O)CNC(=O)[C@H](CC(C)C)NC(=O)CNC(=O)[C@H](CO)NC(=O)[C@H](CCSC)NC(=O)[C@H](CO)NC(=O)CNC1=O [CNP, C-type natriuretic peptide]
relaxation ([1]; femoral and saphenous arteries): no effects
maximal response, percent change in tension from a contraction to phenylephrine ([1]; femoral artery, with endothelium, phenylephrine 10^-6 M): 4 ± 3%
maximal response, percent change in tension from a contraction to phenylephrine ([1]; femoral artery, without endothelium): 10 ± 6%
maximal response, percent change in tension from a contraction to phenylephrine ([1]; femoral vein, with endothelium): 37 ± 8%
maximal response, percent change in tension from a contraction to phenylephrine ([1]; femoral vein, without endothelium): 73 ± 8%
relaxation ([1]; femoral veins): 90%
maximal response, percent change in tension from a contraction to phenylephrine ([1]; pulmonary artery, with endothelium): 12 ± 3%
maximal response, percent change in tension from a contraction to phenylephrine ([1]; pulmonary artery, without endothelium): 33 ± 5%
maximal response, percent change in tension from a contraction to phenylephrine ([1]; pulmonary vein, with endothelium): 31 ± 6%
maximal response, percent change in tension from a contraction to phenylephrine ([1]; pulmonary vein, without endothelium): 66 ± 4%
maximal response, percent change in tension from a contraction to phenylephrine ([1]; renal artery, with endothelium): 8 ± 2%
maximal response, percent change in tension from a contraction to phenylephrine ([1]; renal artery, without endothelium): 8 ± 2%
maximal response, percent change in tension from a contraction to phenylephrine ([1]; renal vein, with endothelium): 43 ± 4%
maximal response, percent change in tension from a contraction to phenylephrine ([1]; renal vein, without endothelium): 71 ± 5%
maximal response, percent change in tension from a contraction to phenylephrine ([1]; saphenous artery, with endothelium): 11 ± 7%
maximal response, percent change in tension from a contraction to phenylephrine ([1]; saphenous artery, without endothelium): 14 ± 8%
maximal response, percent change in tension from a contraction to phenylephrine ([1]; saphenous vein, with endothelium): 16 ± 1%
maximal response, percent change in tension from a contraction to phenylephrine ([1]; saphenous vein, without endothelium): 43 ± 10%
relaxation ([1]; saphenous veins): 40%
relaxation, % of the contraction to phenylephrine ([1]; systemic arteries (femoral, saphenous and renal)): less than 30%
natriuretic action (in words) (normal rats; in vivo, rat): modest but significant natriuretic actions
change in MAP and RAP (in words) (normal rats; [2]): significant decrease
change in urine flow, sodium excretion, plasma cGMP and urinary cGMP volume (in words) (normal rats; [2]): increased
MAP mean arterial pressure (normal rats; normal rats, iv bolus 5 μg/kg, 15-min period): 100 ± 12 mmHg
HR heart rate (normal rats; normal rats, iv bolus 5 μg/kg): 363 ± 19 beats/min
RAP right atrial pressure (normal rats; normal rats, iv bolus 5 μg/kg): 0 ± 1.5 mmHg
UKV urine potassium excretion (normal rats; normal rats, iv bolus 5 μg/kg): 5.1 ± 1.6 µmol/min
UNaV urine sodium excretion (normal rats; normal rats, iv bolus 5 μg/kg): 4.1 ± 1.4 µmol/min
UV urine volume (normal rats; normal rats, iv bolus 5 μg/kg): 27.6 ± 2.0 µL/min
UcGMPV urine cGMP volume (normal rats; normal rats, iv bolus 5 μg/kg): 97 ± 32 pmol/min
HR heart rate (normal rats; normal rats, iv bolus 50 μg/kg): 365 ± 19 beats/min
PcGMP plasma cGMP (normal rats; normal rats, iv bolus 50 μg/kg): 19.4 ± 2.7 pmol/mL
RAP right atrial pressure (normal rats; normal rats, iv bolus 50 μg/kg): -2.3 ± 0.6 mmHg
UKV urine potassium excretion (normal rats; normal rats, iv bolus 50 μg/kg): 7.6 ± 2.5 µmol/min
UNaV urine sodium excretion (normal rats; normal rats, iv bolus 50 μg/kg): 12.1 ± 3.2 µmol/min
UV urine volume (normal rats; normal rats, iv bolus 50 μg/kg): 66.4 ± 7.4 µL/min
UcGMPV urine cGMP volume (normal rats; normal rats, iv bolus 50 μg/kg): 323 ± 81 pmol/min
MAP mean arterial pressure (normal rats; normal rats, recovery period after 30-min washout): 104 ± 11 mmHg
HR heart rate (normal rats; normal rats, recovery period): 363 ± 16 beats/min
PcGMP plasma cGMP (normal rats; normal rats, recovery period): 3.6 ± 0.3 pmol/mL
RAP right atrial pressure (normal rats; normal rats, recovery period): -0.1 ± 0.9 mmHg
UKV urine potassium excretion (normal rats; normal rats, recovery period): 2.4 ± 1.1 µmol/min
UNaV urine sodium excretion (normal rats; normal rats, recovery period): 2.9 ± 0.3 µmol/min
UV urine volume (normal rats; normal rats, recovery period): 21.2 ± 6.3 µL/min
UcGMPV urine cGMP volume (normal rats; normal rats, recovery period): 70 ± 39 pmol/min
MAP mean arterial pressure (normal rats; normal rats, second iv bolus 50 μg/kg, 15-min period): 87 ± 9 mmHg
